Test results: article PMC11786751, “An SH3-binding allosteric modulator stabilizes the global conformation of the AML-associated Src-family kinase, Hck” (The Journal of Biological Chemistry, 2024)

Experiments:
Hck [1] = biological target: T1, Hck (Homo sapiens, UniProt P08631); experiment: 1H-15N HSQC NMR titration; also SPR (KD […], near-full-length) and HDX-MS; assay type: binding
T1 construct: SH3 domain (p59 Hck amino acids 80–144); also SH3-SH2-linker (84–261) and near-full-length Hck (84–524)
T1 sequence (P08631 75-139): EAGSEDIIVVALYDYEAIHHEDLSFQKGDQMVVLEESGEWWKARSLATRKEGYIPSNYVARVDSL

Src = biological target: T2, Src (Homo sapiens, UniProt P12931); experiment: SPR; assay type: binding
T2 construct: near-full-length (SH3-SH2-kinase-tail)
T2 sequence (P12931 2-536): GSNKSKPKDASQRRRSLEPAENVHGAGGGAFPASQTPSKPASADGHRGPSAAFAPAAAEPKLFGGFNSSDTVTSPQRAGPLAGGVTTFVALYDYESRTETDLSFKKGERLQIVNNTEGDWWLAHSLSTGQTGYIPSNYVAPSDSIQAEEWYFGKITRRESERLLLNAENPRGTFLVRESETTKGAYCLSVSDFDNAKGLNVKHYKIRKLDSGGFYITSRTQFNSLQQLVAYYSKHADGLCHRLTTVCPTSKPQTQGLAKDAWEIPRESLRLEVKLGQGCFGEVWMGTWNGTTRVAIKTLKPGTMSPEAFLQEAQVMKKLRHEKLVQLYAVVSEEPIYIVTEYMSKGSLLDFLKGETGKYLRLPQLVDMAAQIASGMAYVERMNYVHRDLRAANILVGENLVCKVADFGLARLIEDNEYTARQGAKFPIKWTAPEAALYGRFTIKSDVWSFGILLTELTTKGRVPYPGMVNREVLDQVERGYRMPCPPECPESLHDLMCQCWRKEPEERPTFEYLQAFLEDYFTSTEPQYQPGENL

Hck [2] = biological target: T3, Hck (Homo sapiens, UniProt P08631, H284A/T285A/Q523E/Q524E/Q525I); experiment: kinetic kinase assay (ADP Quest), activation of the mutant kinase; assay type: biochemical
T3 construct: near-full-length Hck (p59 amino acids 84–524, modified tail YEEIP)
T3 sequence (P08631 79-526 H284A/T285A/Q523E/Q524E/Q525I): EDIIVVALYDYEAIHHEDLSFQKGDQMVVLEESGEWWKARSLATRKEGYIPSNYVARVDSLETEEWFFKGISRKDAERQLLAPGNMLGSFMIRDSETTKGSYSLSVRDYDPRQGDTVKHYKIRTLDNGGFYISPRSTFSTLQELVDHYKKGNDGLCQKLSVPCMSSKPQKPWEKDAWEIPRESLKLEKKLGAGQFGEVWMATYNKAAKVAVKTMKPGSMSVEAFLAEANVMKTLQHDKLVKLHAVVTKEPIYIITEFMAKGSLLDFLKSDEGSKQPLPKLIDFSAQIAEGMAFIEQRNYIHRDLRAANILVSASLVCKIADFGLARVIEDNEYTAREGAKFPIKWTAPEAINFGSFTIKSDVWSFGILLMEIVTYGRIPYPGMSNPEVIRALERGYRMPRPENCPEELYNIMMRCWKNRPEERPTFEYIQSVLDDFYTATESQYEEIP

Lyn = biological target: T4, Lyn (Homo sapiens, UniProt P07948); experiment: SPR; assay type: binding
T4 construct: near-full-length (SH3-SH2-kinase-tail)
T4 sequence (P07948 2-512): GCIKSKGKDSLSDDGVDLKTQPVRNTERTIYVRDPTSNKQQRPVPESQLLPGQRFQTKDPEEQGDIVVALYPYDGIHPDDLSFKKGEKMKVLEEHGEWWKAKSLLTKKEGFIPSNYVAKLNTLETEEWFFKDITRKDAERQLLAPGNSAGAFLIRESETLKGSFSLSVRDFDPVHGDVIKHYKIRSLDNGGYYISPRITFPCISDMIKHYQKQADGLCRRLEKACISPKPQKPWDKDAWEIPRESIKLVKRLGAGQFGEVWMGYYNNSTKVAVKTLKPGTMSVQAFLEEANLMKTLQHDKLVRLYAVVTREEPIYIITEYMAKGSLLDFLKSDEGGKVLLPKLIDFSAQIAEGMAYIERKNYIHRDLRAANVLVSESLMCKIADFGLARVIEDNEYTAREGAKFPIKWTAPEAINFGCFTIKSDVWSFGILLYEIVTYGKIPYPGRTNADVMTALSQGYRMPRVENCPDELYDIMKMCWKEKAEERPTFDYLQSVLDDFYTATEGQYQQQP

Hck [3] = biological target: T1, Hck; experiment: 1H-15N HSQC NMR titration; also SPR (KD […], near-full-length), HDX-MS and kinase activation; assay type: binding

Kd (Hck [1]) [µM]	Kd (Src) [µM]	Kd (Lyn) [µM]	Kd (Hck [3]) [µM]	Compound	kinetic kinase assay (ADP Quest), activation of the mutant kinase (Hck [2])
42.6 ± 4.7	55 ± 2.18	74.9 ± 19.9	–	CC(C)Nc1ccnc(NCc2cccnc2Oc2ccc(F)cc2)n1 [PDA1]	Both PDA1 and PDA2 activated Hck-HTA (Fig. 7B), unlike WT Hck, which is only activated by PDA2
–	236 ± 18.1	180 ± 33.7	65.1 ± 3.1	Cc1cnc(NCc2ccccc2-n2ccnc2)nc1N(C)C [PDA2]	–
